Test results published in ChEMBL document CHEMBL4840362, “Diterpenoids from the whole plants of Croton yunnanensis and their bioactivities” (Bioorg Med Chem, 2021).
Active and inactive are the calls of the source. No cut-off for these calls is given here.

Columns and labels:
Format in all cases: functional, cell-based
HL-60 [1] = assay: Cytotoxicity against human HL-60 cells assessed as inhibition of cell growth at 40 uM measured after 48 hrs by MTS assay
MCF7 = assay: Cytotoxicity against human MCF7 cells assessed as inhibition of cell growth at 40 uM measured after 48 hrs by MTS assay
RAW264.7 = assay: Antiinflammatory activity against mouse RAW264.7 cells assessed as inhibition of LPS induced nitric oxide production at 50 uM followed by LPS stimulation incubated for 18 hrs by Griess reagent based assay
SW480 = assay: Cytotoxicity against human SW480 cells assessed as inhibition of cell growth at 40 uM measured after 48 hrs by MTS assay
SMMC-7721 [2] = assay: Cytotoxicity against human SMMC-7721 cells assessed as inhibition of cell growth at 40 uM measured after 48 hrs by MTS assay
A549 [3] = assay: Cytotoxicity against human A549 cells assessed as inhibition of cell growth at 40 uM measured after 48 hrs by MTS assay
HL-60 [4] = assay: Cytotoxicity against human HL-60 cells assessed as inhibition of cell growth measured after 48 hrs by MTS assay; settings: HL-60, 48 h
A549 [5] = assay: Cytotoxicity against human A549 cells assessed as inhibition of cell growth measured after 48 hrs by MTS assay; settings: A549, 48 h
SMMC-7721 [6] = assay: Cytotoxicity against human SMMC-7721 cells assessed as inhibition of cell growth measured after 48 hrs by MTS assay; settings: SMMC-7721, 48 h

`COC(=O)C1=CCC[C@@H]2[C@]13CC[C@H](C)[C@@]21C[C@H](c2ccoc2)O[C@H]1OC3=O` was tested, and the Activity (HL-60 [1]) was “inactive”, the Activity (MCF7) was “inactive” and the Activity (RAW264.7) was “inactive”. The Activity (SW480) was “inactive”, the Activity (SMMC-7721 [2]) was “inactive” and the Activity (A549 [3]) was “inactive”.
In the case of `COC(=O)C12C=CC[C@@H]3[C@@H]1CC[C@H](C)[C@@]31C[C@H](c3ccoc3)O[C@H]1O2`, the Activity (HL-60 [1]) is reported as “inactive”, the Activity (MCF7) is reported as “inactive” and the Activity (RAW264.7) is reported as “inactive”. For the same compound, the Activity (SW480) was “inactive”, the Activity (SMMC-7721 [2]) was “inactive” and the Activity (A549 [3]) was “inactive”.
In the case of `COC(=O)C1=CCC[C@H]2C1=CC[C@@H](C)[C@]21C[C@@H](c2ccoc2)OC1=O`, the Activity (HL-60 [1]) is reported as “inactive”, the Activity (MCF7) is reported as “inactive” and the Activity (RAW264.7) is reported as “inactive”. For the same compound, the Activity (SW480) was “inactive”, the Activity (SMMC-7721 [2]) was “inactive” and the Activity (A549 [3]) was “inactive”.
`COC(=O)C1=CCC[C@@H]2C13CC[C@H](C)[C@@]21C[C@H](c2ccoc2)O[C@H]1O[C@@H]3O` was tested, and the Activity (HL-60 [1]) was “inactive”, the Activity (MCF7) was “inactive” and the Activity (RAW264.7) was “inactive”. The Activity (SW480) was “inactive”, the Activity (SMMC-7721 [2]) was “inactive” and the Activity (A549 [3]) was “inactive”.
In the case of `COC(=O)C1=CCC[C@H]2C13CC[C@@H](C)[C@]21C[C@@H](c2ccoc2)O[C@@H]1O3`, the Activity (HL-60 [1]) is reported as “inactive”, the Activity (MCF7) is reported as “inactive” and the Activity (RAW264.7) is reported as “inactive”. The Activity (SW480) was “inactive”, the Activity (SMMC-7721 [2]) was “inactive” and the Activity (A549 [3]) was “inactive”.
`COC(=O)[C@@H]1C=CC[C@@H]2C13CC[C@@H](C)[C@]21C[C@@H](c2ccoc2)O[C@@H]1O3` was tested, and the Activity (HL-60 [1]) was “inactive”, the Activity (MCF7) was “inactive” and the Activity (RAW264.7) was “inactive”. The Activity (SW480) was “inactive”, the Activity (SMMC-7721 [2]) was “inactive” and the Activity (A549 [3]) was “inactive”.
`COc1c(C)cc2c(c1O)[C@]1(C)CCC(=O)C(C)(C)C1=C(O)C2=O` showed an IC50 (HL-60 [4]) of 14.4 µM, an IC50 (A549 [5]) of 27.4 µM and an IC50 (SMMC-7721 [6]) of 4.47 µM. For the same compound, the Activity (RAW264.7) was “inactive”.
For `CCCCCCCCCC(=O)O[C@@H]1[C@@H](C)[C@@]2(O)[C@@H](C=C(CO)C[C@]3(O)C(=O)C(C)=C[C@@H]23)[C@@H]2C(C)(C)[C@]12OC(C)=O`, the Activity (HL-60 [1]) was “inactive”, the Activity (MCF7) was “inactive” and the Activity (RAW264.7) was “inactive”. The Activity (SW480) was “inactive”, the Activity (SMMC-7721 [2]) was “inactive” and the Activity (A549 [3]) was “inactive”.
In the case of `CC(=O)O[C@H]1C(=O)[C@@]2(C)[C@H]([C@H](OC(=O)c3ccccc3)[C@]3(O)C[C@H](OC(=O)[C@H](O)[C@@H](NC(=O)c4ccccc4)c4ccccc4)C(C)=C1C3(C)C)[C@]1(OC(C)=O)CO[C@@H]1C[C@@H]2O` [PACLITAXEL], the IC50 (HL-60 [4]) is reported as less than 0.008 µM, the IC50 (A549 [5]) is reported as less than 0.008 µM and the IC50 (SMMC-7721 [6]) is reported as 0.143 µM.
`COC(=O)c1cccc2c1CC[C@@H](C)[C@]21C[C@@H](c2ccoc2)OC1=O` was tested, and the Activity (HL-60 [1]) was “inactive”, the Activity (MCF7) was “inactive” and the Activity (RAW264.7) was “inactive”. For the same compound, the Activity (SW480) was “inactive”, the Activity (SMMC-7721 [2]) was “inactive” and the Activity (A549 [3]) was “inactive”.
